Assay results taken from publication PMC10006169, “A phase I trial of LXS196, a protein kinase C (PKC) inhibitor, for metastatic uveal melanoma” (British Journal of Cancer, 2023).
Read-outs that look alike come from different tables or passages of the source.

Test: Plasma pharmacokinetics (LC-MS/MS)
Format: in vivo, human
Details: human, plasma, oral; for Tmax: read-out: Tmax, Median (Min, max); for concentration at 15 day: read-out: Cmin, Median (Min, max)
Procedure: In the dose escalation part of the study, PK samples were collected at various pre- and post-dose time points on C1D1, D2, D3, D15 and D16. Drug concentrations were assessed using a validated liquid chromatography-tandem mass spectrometry assay.

Structure (SMILES): CC1(N)CCN(c2cccnc2NC(=O)c2nc(-c3ncccc3C(F)(F)F)cnc2N)CC1 [LXS196]
- Tmax (100 mg, C1D1, 100 mg QD, n=3): 1 h
- AUC(0-t) (100 mg, C1D15, 100 mg QD, n=2, read-out: AUC0-t, Geo-mean): 10400 ng·h/mL
- AUC(0-t) (100 mg, C1D15, 100 mg QD, n=2, read-out: AUC0-t, Mean (SD)): 10400 ng·h/mL
- AUC(0-t) (100 mg, C1D15, 100 mg QD, n=2, read-out: AUC0-t, Median (Min, max)): 10400 ng·h/mL
- Cmax (100 mg, C1D15, 100 mg QD, n=3, read-out: Cmax, Geo-mean): 1180 ng/mL
- Cmax (100 mg, C1D15, 100 mg QD, n=3, read-out: Cmax, Mean (SD)): 1190 ng/mL
- Cmax (100 mg, C1D15, 100 mg QD, n=3, read-out: Cmax, Median (Min, max)): 1260 ng/mL
- concentration at 15 day (100 mg, C1D15, 100 mg QD, n=3): 112 ng/mL
- Tmax (100 mg, C1D15, 100 mg QD, n=3): 1 h
- AUC(0-t) (200 mg, C1D1, 200 mg BID, n=6, read-out: AUC0-t, Geo-mean): 15400 ng·h/mL
- AUC(0-t) (200 mg, C1D1, 200 mg BID, n=6, read-out: AUC0-t, Mean (SD)): 18600 ng·h/mL
- AUC(0-t) (200 mg, C1D1, 200 mg BID, n=6, read-out: AUC0-t, Median (Min, max)): 13300 ng·h/mL
- AUC(0-inf) (200 mg, C1D1, 200 mg BID, n=6, read-out: AUCinf, Geo-mean): 24000 ng·h/mL
- AUC(0-inf) (200 mg, C1D1, 200 mg BID, n=6, read-out: AUCinf, Mean (SD)): 29200 ng·h/mL
- AUC(0-inf) (200 mg, C1D1, 200 mg BID, n=6, read-out: AUCinf, Median (Min, max)): 21600 ng·h/mL
- Cmax (200 mg, C1D1, 200 mg BID, n=6, read-out: Cmax, Geo-mean): 3270 ng/mL
- Cmax (200 mg, C1D1, 200 mg BID, n=6, read-out: Cmax, Mean (SD)): 4070 ng/mL
- Cmax (200 mg, C1D1, 200 mg BID, n=6, read-out: Cmax, Median (Min, max)): 2950 ng/mL
- half-life (200 mg, C1D1, 200 mg BID, n=6, read-out: T1/2, Geo-mean (converted)): 13 h
- half-life (200 mg, C1D1, 200 mg BID, n=6, read-out: T1/2, Mean (SD) (converted)): 13.1 h
- half-life (200 mg, C1D1, 200 mg BID, n=6, read-out: T1/2, Median (Min, max) (converted)): 13.1 h
- Tmax (200 mg, C1D1, 200 mg BID, n=6): 0.525 h
- AUC(0-t) (200 mg, C1D1, 200 mg QD, n=3, read-out: AUC0-t, Geo-mean): 18700 ng·h/mL
- AUC(0-t) (200 mg, C1D1, 200 mg QD, n=3, read-out: AUC0-t, Mean (SD)): 19100 ng·h/mL
- AUC(0-t) (200 mg, C1D1, 200 mg QD, n=3, read-out: AUC0-t, Median (Min, max)): 18900 ng·h/mL
- AUC(0-inf) (200 mg, C1D1, 200 mg QD, n=3, read-out: AUCinf, Geo-mean): 21300 ng·h/mL
- AUC(0-inf) (200 mg, C1D1, 200 mg QD, n=3, read-out: AUCinf, Mean (SD)): 21600 ng·h/mL
- AUC(0-inf) (200 mg, C1D1, 200 mg QD, n=3, read-out: AUCinf, Median (Min, max)): 22600 ng·h/mL
- Cmax (200 mg, C1D1, 200 mg QD, n=3, read-out: Cmax, Geo-mean): 3410 ng/mL
- Cmax (200 mg, C1D1, 200 mg QD, n=3, read-out: Cmax, Mean (SD)): 3540 ng/mL
- Cmax (200 mg, C1D1, 200 mg QD, n=3, read-out: Cmax, Median (Min, max)): 2860 ng/mL
- half-life (200 mg, C1D1, 200 mg QD, n=3, read-out: T1/2, Geo-mean (converted)): 8.36 h
- half-life (200 mg, C1D1, 200 mg QD, n=3, read-out: T1/2, Mean (SD) (converted)): 8.52 h
- half-life (200 mg, C1D1, 200 mg QD, n=3, read-out: T1/2, Median (Min, max) (converted)): 8.44 h
- Tmax (200 mg, C1D1, 200 mg QD, n=3): 1 h
- AUC(0-t) (200 mg, C1D15, 200 mg BID, n=5, read-out: AUC0-t, Geo-mean): 15400 ng·h/mL
- AUC(0-t) (200 mg, C1D15, 200 mg BID, n=5, read-out: AUC0-t, Mean (SD)): 16900 ng·h/mL
- AUC(0-t) (200 mg, C1D15, 200 mg BID, n=5, read-out: AUC0-t, Median (Min, max)): 16000 ng·h/mL
- Cmax (200 mg, C1D15, 200 mg BID, n=5, read-out: Cmax, Geo-mean): 2470 ng/mL
- Cmax (200 mg, C1D15, 200 mg BID, n=5, read-out: Cmax, Mean (SD)): 2910 ng/mL
- Cmax (200 mg, C1D15, 200 mg BID, n=5, read-out: Cmax, Median (Min, max)): 2540 ng/mL
- concentration at 15 day (200 mg, C1D15, 200 mg BID, n=5): 883 ng/mL
- Tmax (200 mg, C1D15, 200 mg BID, n=5): 1 h
- AUC(0-t) (200 mg, C1D15, 200 mg QD, n=3, read-out: AUC0-t, Geo-mean): 12900 ng·h/mL
- AUC(0-t) (200 mg, C1D15, 200 mg QD, n=3, read-out: AUC0-t, Mean (SD)): 13200 ng·h/mL
- AUC(0-t) (200 mg, C1D15, 200 mg QD, n=3, read-out: AUC0-t, Median (Min, max)): 13800 ng·h/mL
- Cmax (200 mg, C1D15, 200 mg QD, n=3, read-out: Cmax, Geo-mean): 2490 ng/mL
- Cmax (200 mg, C1D15, 200 mg QD, n=3, read-out: Cmax, Mean (SD)): 2500 ng/mL
- Cmax (200 mg, C1D15, 200 mg QD, n=3, read-out: Cmax, Median (Min, max)): 2620 ng/mL
- concentration at 15 day (200 mg, C1D15, 200 mg QD, n=3): 149 ng/mL
- Tmax (200 mg, C1D15, 200 mg QD, n=3): 1 h
- AUC(0-inf) (300 mg, C1D1, 300 mg BID, n=16, read-out: AUCinf, Geo-mean): 30900 ng·h/mL
- AUC(0-inf) (300 mg, C1D1, 300 mg BID, n=16, read-out: AUCinf, Mean (SD)): 35200 ng·h/mL
- AUC(0-inf) (300 mg, C1D1, 300 mg BID, n=16, read-out: AUCinf, Median (Min, max)): 28400 ng·h/mL
- half-life (300 mg, C1D1, 300 mg BID, n=16, read-out: T1/2, Geo-mean (converted)): 11.9 h
- half-life (300 mg, C1D1, 300 mg BID, n=16, read-out: T1/2, Mean (SD) (converted)): 12.1 h
- half-life (300 mg, C1D1, 300 mg BID, n=16, read-out: T1/2, Median (Min, max) (converted)): 11.8 h
